Data reported in patent US12269012B2, “Columns and methods of use for analytical standards and compounds” (priority 2018, dated 2025).
Like-named read-outs stand apart in the source and are kept apart here.

Legend:
[1] = Bound and recovery of PAH standards on PS-DVB on-column standards after 15 days of storage; type: physicochemical; settings: standards 0.1-9 ppm; for Average % Bound: PS-DVB pipette tip columns; for Average % Recovered: after 15 days of storage of on-column standards
Description: Primary stock solutions of PAHs, namely B(a)A, Ch, B(b)F and B(a)P, were prepared by dissolving 1-2 mg of each compound in 10.0 mL methanol separately. From these stock solutions, secondary working standard stock solutions were mixed together to constitute the working standards containing all the standards mixed together. The secondary standard mixtures were prepared to have final concentrations of 0.1-10 ppm. All primary and secondary working solutions were stored at −20° C.
PS-DVB 160 μL resin bed volume pipette tip columns (50 mg resin, particle size 70-100 μm particle size, 950 m^2/g surface area) from PhyNexus® (San Jose, CA) were activated with 500 μL of 1:1 methanol/water through five times recycling of the activation solution. The loading was achieved through ten times recycling of the 500 μL sample. Washing was carried out once, with 1:1 methanol/water (ten times recycling of 500 μL wash solution). After washing, the sorbent was dried for 1 minute through flushing ambient air in and out of the tip and then air dried and stored for 15 days.
PS-DVB sorbent retains PAHs due to strong π-π interactions between sorbent and PAHs. The PS/DVB on-column standards were prepared by loading 0.1, 0.3, 0.5, 0.7, 0.9, 1, 3, 5, 7, and 9 ppm standard mixtures. These corresponded to 50, 150, 250, 350, 450, 500, 1500, 2500, 3500, and 4500 ng by weight of each of the four PAH standards contained in the secondary standard mixture.

[2] = SPE binding and recovery of flavonoid standards from freshly prepared Oasis HLB cartridges; type: physicochemical; settings: 10, 15, and 20 ppm standard solutions
Description: In addition, on-column standards were prepared from the fresh standards. Unidirectional flow Oasis® HLB, 30 mg sorbent 1 mL cartridges were used as the solid phase extraction column. The appropriate amounts of standard compounds corresponding to 10-30 ppm were adsorbed to SPE sorbent Oasis® HLB cartridges.
The SPE columns were activated with 1 mL methanol and equilibrated with 1 mL water. The cartridges loaded with standard compound solutions dried and were stored in vacuum sealed packing.
The columns were stored for several days. The columns were washed with 1:1 methanol/water. Elution was performed twice with 500 μL 10% formic acid in methanol. HPLC-UV and ESI-MS were used to quantify the target compounds.

[3] = type: physicochemical
Description: All three solutions were combined to a final volume of 10.0 mL using pure methanol. From this stock solution, working standards at net final concentration of 10-30 ppm (each) were prepared by appropriate dilution of the stock solution into 1:1 methanol/water, v/v. All working solutions were stored at −20° C. as well as stored at room temperature (stability was monitored after 4 hours, 1 day, 3 days, 7 days, 10 days and 28 days' storage at room temperature) to monitor the extent of degradation.
Degradation Kinetics (0-28 Days) for wet storage at room temperature.
The stability of flavonoids was compared at wet storage (solution form at room temperature and at −20° C.) and dry storage (room temperature bound to sorbent and dry form in an open Eppendorf vial).

Q: With `c1ccc2cc3c(ccc4ccccc43)cc2c1` [Benz(a)anthracene (B(a)A), Benz(a)anthracene] as the molecule, how does the “Average % Bound” value [1] read?
A: Its value is 95-99%.

Q: What about the “Average % Recovered” value [1] of the same molecule?
A: The value was 100-102%.

Q: Which results are given for `c1ccc2c(c1)cc1ccc3cccc4ccc2c1c34` [Benzo(a)pyrene (B(a)P), Benzo(a)pyrene]?
A: Average % Bound [1]: 95-99%; Average % Recovered [1]: 96-100%

Q: For `c1ccc2c(c1)-c1cccc3c1c-2cc1ccccc13` [Benzo(b)fluoranthene (B(b)F), Benzo(b)fluoranthene], which “Average % Bound” value [1] is on record?
A: Its value is 95-99%.

Q: What about the “Average % Recovered” value [1] of the same molecule?
A: Its value is 90-97%.

Q: Which “Average % Bound” value [1] does the source give for `c1ccc2c(c1)ccc1c3ccccc3ccc21` [Chrysene (Ch), Chrysene] here?
A: Its value is 95-99%.

Q: What about the “Average % Recovered” value [1] of the same molecule?
A: Its value is 100-102%.

Q: Which “Bound % (Oasis ® HLB, 30 mg, 1 ml sorbent)” value (shortened to “Bound %”) [2] does the source give for `O=c1c(O)c(-c2ccc(O)cc2)oc2cc(O)cc(O)c12` [Kaempferol, kaempferol] here?
A: Its value is 100%.

Q: Which “Bound %” value [2] does the source give for `O=c1c(O)c(-c2cc(O)c(O)c(O)c2)oc2cc(O)cc(O)c12` [Myricetin, myricetin] here?
A: Its value is 100%.

Q: What about the percent degradation ([3]; 0 h, 10 ppm) of the same molecule?
A: Its percent degradation is 0%.

Q: And the percent degradation ([3]; 0 h, 15 ppm)?
A: Its percent degradation is 0%.

Q: What about the percent degradation ([3]; 0 h, 20 ppm) of the same molecule?
A: The percent degradation was 0%.

Q: And the percent degradation ([3]; 0 h, 25 ppm)?
A: Its percent degradation is 0%.

Q: What about the percent degradation ([3]; 0 h, 30 ppm) of the same molecule?
A: The percent degradation was 0%.

Q: And the percent degradation ([3]; 4 h, 10 ppm)?
A: Its percent degradation is −0.4796%.

Q: And the percent degradation ([3]; 4 h, 15 ppm)?
A: Its percent degradation is −0.6270%.

Q: What about the percent degradation ([3]; 4 h, 20 ppm) of the same molecule?
A: The percent degradation was 1.520%.

Q: What about the percent degradation ([3]; 4 h, 25 ppm) of the same molecule?
A: The percent degradation was 0.1736%.

Q: And the percent degradation ([3]; 4 h, 30 ppm)?
A: Its percent degradation is 0.4265%.

Q: What about the percent degradation ([3]; 1 day, 10 ppm) of the same molecule?
A: Its percent degradation is −0.9592%.

Q: What about the percent degradation ([3]; 1 day, 15 ppm) of the same molecule?
A: The percent degradation was 0.3134%.

Q: And the percent degradation ([3]; 1 day, 20 ppm)?
A: The percent degradation was 2.690%.

Q: What about the percent degradation ([3]; 1 day, 25 ppm) of the same molecule?
A: The percent degradation was 3.211%.

Q: And the percent degradation ([3]; 1 day, 30 ppm)?
A: Its percent degradation is 0.9239%.

Q: What about the percent degradation ([3]; 3 days, 10 ppm) of the same molecule?
A: The percent degradation was 4.556%.

Q: What about the percent degradation ([3]; 3 days, 15 ppm) of the same molecule?
A: The percent degradation was 5.015%.

Q: What about the percent degradation ([3]; 3 days, 20 ppm) of the same molecule?
A: Its percent degradation is 6.901%.

Q: What about the percent degradation ([3]; 3 days, 25 ppm) of the same molecule?
A: The percent degradation was 5.990%.

Q: What about the percent degradation ([3]; 3 days, 30 ppm) of the same molecule?
A: Its percent degradation is 3.767%.

Q: And the percent degradation ([3]; 7 days, 10 ppm)?
A: Its percent degradation is 11.27%.

Q: And the percent degradation ([3]; 7 days, 15 ppm)?
A: Its percent degradation is 9.404%.

Q: What about the percent degradation ([3]; 7 days, 20 ppm) of the same molecule?
A: The percent degradation was 12.74%.

Q: And the percent degradation ([3]; 7 days, 25 ppm)?
A: Its percent degradation is 10.67%.

Q: What about the percent degradation ([3]; 7 days, 30 ppm) of the same molecule?
A: Its percent degradation is 8.319%.

Q: What about the percent degradation ([3]; 10 days, 10 ppm) of the same molecule?
A: Its percent degradation is 12.47%.

Q: What about the percent degradation ([3]; 10 days, 15 ppm) of the same molecule?
A: The percent degradation was 10.66%.

Q: What about the percent degradation ([3]; 10 days, 20 ppm) of the same molecule?
A: Its percent degradation is 12.63%.

Q: What about the percent degradation ([3]; 10 days, 25 ppm) of the same molecule?
A: Its percent degradation is 9.982%.

Q: What about the percent degradation ([3]; 10 days, 30 ppm) of the same molecule?
A: The percent degradation was 7.747%.

Q: And the percent degradation ([3]; 28 days, 10 ppm)?
A: The percent degradation was 30.46%.

Q: What about the percent degradation ([3]; 28 days, 15 ppm) of the same molecule?
A: The percent degradation was 31.97%.

Q: And the percent degradation ([3]; 28 days, 20 ppm)?
A: The percent degradation was 22.92%.

Q: And the percent degradation ([3]; 28 days, 25 ppm)?
A: The percent degradation was 19.36%.

Q: And the percent degradation ([3]; 28 days, 30 ppm)?
A: The percent degradation was 17.13%.

Q: For `O=c1c(O)c(-c2ccc(O)c(O)c2)oc2cc(O)cc(O)c12` [Quercetin, quercetin], which “Bound %” value [2] is on record?
A: Its value is 100%.

Q: What about the percent degradation ([3]; 0 h, 10 ppm) of the same molecule?
A: Its percent degradation is 0%.

Q: What about the percent degradation ([3]; 0 h, 15 ppm) of the same molecule?
A: Its percent degradation is 0%.

Q: And the percent degradation ([3]; 0 h, 20 ppm)?
A: The percent degradation was 0%.

Q: What about the percent degradation ([3]; 0 h, 25 ppm) of the same molecule?
A: Its percent degradation is 0%.

Q: And the percent degradation ([3]; 0 h, 30 ppm)?
A: Its percent degradation is 0%.

Q: What about the percent degradation ([3]; 4 h, 10 ppm) of the same molecule?
A: Its percent degradation is −0.4024%.

Q: What about the percent degradation ([3]; 4 h, 15 ppm) of the same molecule?
A: Its percent degradation is 0.1356%.

Q: What about the percent degradation ([3]; 4 h, 20 ppm) of the same molecule?
A: The percent degradation was −0.4094%.

Q: And the percent degradation ([3]; 4 h, 25 ppm)?
A: The percent degradation was 0.4552%.

Q: What about the percent degradation ([3]; 4 h, 30 ppm) of the same molecule?
A: The percent degradation was −0.3121%.

Q: And the percent degradation ([3]; 1 day, 10 ppm)?
A: The percent degradation was 0.4024%.

Q: And the percent degradation ([3]; 1 day, 15 ppm)?
A: Its percent degradation is −0.4070%.

Q: And the percent degradation ([3]; 1 day, 20 ppm)?
A: The percent degradation was 0.1023%.

Q: What about the percent degradation ([3]; 1 day, 25 ppm) of the same molecule?
A: The percent degradation was 1.442%.

Q: And the percent degradation ([3]; 1 day, 30 ppm)?
A: The percent degradation was −0.2496%.

Q: And the percent degradation ([3]; 3 days, 10 ppm)?
A: Its percent degradation is 3.822%.

Q: And the percent degradation ([3]; 3 days, 15 ppm)?
A: Its percent degradation is 2.442%.

Q: What about the percent degradation ([3]; 3 days, 20 ppm) of the same molecule?
A: The percent degradation was 1.842%.

Q: And the percent degradation ([3]; 3 days, 25 ppm)?
A: Its percent degradation is 2.656%.

Q: What about the percent degradation ([3]; 3 days, 30 ppm) of the same molecule?
A: Its percent degradation is 0.9363%.

Q: What about the percent degradation ([3]; 7 days, 10 ppm) of the same molecule?
A: Its percent degradation is 6.237%.

Q: What about the percent degradation ([3]; 7 days, 15 ppm) of the same molecule?
A: The percent degradation was 3.799%.

Q: And the percent degradation ([3]; 7 days, 20 ppm)?
A: The percent degradation was 4.811%.

Q: What about the percent degradation ([3]; 7 days, 25 ppm) of the same molecule?
A: The percent degradation was 4.780%.

Q: What about the percent degradation ([3]; 7 days, 30 ppm) of the same molecule?
A: Its percent degradation is 3.246%.

Q: And the percent degradation ([3]; 10 days, 10 ppm)?
A: Its percent degradation is 5.432%.

Q: What about the percent degradation ([3]; 10 days, 15 ppm) of the same molecule?
A: The percent degradation was 3.664%.

Q: And the percent degradation ([3]; 10 days, 20 ppm)?
A: Its percent degradation is 3.480%.

Q: What about the percent degradation ([3]; 10 days, 25 ppm) of the same molecule?
A: Its percent degradation is 3.414%.

Q: What about the percent degradation ([3]; 10 days, 30 ppm) of the same molecule?
A: Its percent degradation is 2.871%.

Q: What about the percent degradation ([3]; 28 days, 10 ppm) of the same molecule?
A: The percent degradation was 12.47%.

Q: What about the percent degradation ([3]; 28 days, 15 ppm) of the same molecule?
A: Its percent degradation is 9.633%.

Q: And the percent degradation ([3]; 28 days, 20 ppm)?
A: The percent degradation was 7.881%.

Q: What about the percent degradation ([3]; 28 days, 25 ppm) of the same molecule?
A: The percent degradation was 6.525%.

Q: And the percent degradation ([3]; 28 days, 30 ppm)?
A: Its percent degradation is 5.056%.
